Test results as given in PubChem BioAssay (NCI).
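1) Cells in 96-well plates. 2) Compound, 48 h, 5 concentrations. 3) Linear interpolation between surrounding doses. 4) Unreached endpoint = highest concentration. TGI denotes the concentration required for complete inhibition of growth.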

What was measured:
Test in all cases: growth of human tumour cells (NCI), 48 h
HCT-116 colon = tested on: HCT-116 colon
NCI-H23 lung = tested on: NCI-H23 lung
SK-MEL-5 melanoma = tested on: SK-MEL-5 melanoma
OVCAR-4 ovarian = tested on: OVCAR-4 ovarian
HCC-2998 colon = tested on: HCC-2998 colon
K-562 leukemia = tested on: K-562 leukemia
BT-549 breast = tested on: BT-549 breast
SK-MEL-2 melanoma = tested on: SK-MEL-2 melanoma
NCI-H460 lung = tested on: NCI-H460 lung
SK-MEL-28 melanoma = tested on: SK-MEL-28 melanoma
OVCAR-3 ovarian = tested on: OVCAR-3 ovarian

Structure (SMILES) | TGI (HCT-116 colon) [µM] | TGI (NCI-H23 lung) [µM] | TGI (SK-MEL-5 melanoma) [µM] | TGI (OVCAR-4 ovarian) [µM] | TGI (HCC-2998 colon) [µM] | TGI (K-562 leukemia) [µM] | TGI (BT-549 breast) [µM] | TGI (SK-MEL-2 melanoma) [µM] | TGI (NCI-H460 lung) [µM] | TGI (SK-MEL-28 melanoma) [µM] | TGI (OVCAR-3 ovarian) [µM]
COC(=O)c1cccc(OC)c1C#Cc1c(OC)cccc1OC | > 100 | > 100 | > 100 | > 100 | > 100 | > 100 | > 100 | > 100 | > 100 | > 100 | > 100
Cc1cc(N(CCC#N)CCC#N)ccc1/C=C1\SC(=S)NC1=O | > 100 | > 100 | > 100 | > 100 | > 100 | > 100 | > 100 | > 100 | > 100 | > 100 | > 100
COC(=O)NC(Cc1ccccc1)NC(C)=O (stereo not given) | > 100 | > 100 | > 100 | > 100 | > 100 | > 100 | > 100 | > 100 | > 100 | > 100 | > 100
O=C1CS[C@@](CC(c2ccc(Cl)cc2)c2ccc(Cl)cc2)(c2ccc(Cl)cc2)N1 | > 100 | > 100 | 34.6 | > 100 | > 100 | > 100 | > 100 | 87.6 | > 100 | > 100 | 38
Cc1cc(N2CCCC2)c([N+](=O)[O-])cc1[N+](=O)[O-] | > 100 | > 100 | > 100 | > 100 | > 100 | > 100 | > 100 | > 100 | > 100 | > 100 | > 100
